# From US20140302022A1, “2-CARBOXAMIDE CLYCLOAMINO UREA DERIVATIVES FOR USE IN TREATING VEGF-DEPENDENT DISEASES” (priority 2011, published 2014)
# “And” between values parts separate entries of the source, which are not always exact repeats. Identical values can stand only once.
# Tests used:
# [1] = tested on: angiogenic response induced by VEGF; assay: In vivo chamber implant angiogenesis assay, VEGF-stimulated; design: species or system FVB mice
# Method: (§1) Porous perfluoro-alkoxy-Teflon® chambers containing PBS or VEGF (2 μg/mL) in 0.5 ml of 0.8% w/v agar (containing heparin, 20 U/mL) were implanted subcutaneously in the flank of FVB mice. Animals were treated orally either with Compound A at 12.5, 25 and 50 mg/kg once a day or vehicle (5 ml/kg) starting 4-6 hours before implantation of the chambers and daily for 3 days. VEGF induces the growth of vascularized tissue around the chamber. The angiogenic response can be quantified by measuring the weight and Tie-2 levels of the tissue. Animals were sacrificed 4 days after the implantation. Values are mean±SEM. *p<0.05, statistical significance of inhibition. The total number of animals per group is given in brackets.
# (§2) Sterile tissue chambers made of perfluoro-alkoxy-Teflon® were filled with 500 μl molten 0.8% w/v agar containing 20 U/mL heparin (Novo Nordisk A/S, Bagsvaerd, Denmark) with or without growth factor (dog VEGF 2 μg/mL or phosphate buffer saline (PBS/O)). The chamber was implanted aseptically under isoflurane anesthesia through a small incision on the back of the animal and the incision was closed by wound clips. Animals were treated orally either with Compound A at 12.5, 25 or 50 mg/kg once a day formulated in a vehicle of NMP/PEG300 (10/90, V/V) or vehicle alone starting 4-6 hours before implantation of the chambers and daily for three days. VEGF induces the growth of vascularized tissue around the chamber. The angiogenic response can be quantified by measuring the weight and Tie-2 levels of the tissue.
# (§3) Four days after implantation, animals were sacrificed using CO2. The chambers were recovered from the animal and the vascularized tissue that had formed around each implant was carefully removed and weighed. Tissue samples were homogenized for 30 sec at 24000 rpm (Ultra Turrax T25) after addition of 1 mL of Ripa buffer (Tris-HCl 50 mM, NaCl 120 mM, EDTA 1 mM, EGTA 6 mM, NP-40 1%, Sodium fluoride 20 mM, Pefabloc SC 1 mM, Sodium vanadate 1 mM). The samples were then centrifuged for 1 h at 7000 rpm. The supernatant was filtered using a 0.45 μm syringe filter (Acrodisc® GF, Gelman Sciences, Ann Arbor, Mich., USA) to avoid fat contamination.
# Tie-2 is a receptor tyrosine kinase which is specifically expressed on endothelial cells. For Tie-2 level determination, Nunc (Naperville, Ill.) Maxisorp 96-well plates were coated over night at 4° C. with the capture antibody, anti-Tie-2 AB33 (UBI, Hauppauge, N.Y.), with a concentration of 2 μg/mL (100 μL/well). Wells were washed in TPBS (Tween 80 PBS) and blocked by incubating with 3% Top-Block (Juro, Lucerne, Switzerland) for 2 hours at room temperature. 300 μg of protein lysates were added and incubated for 2 hours, and the wells washed three times before addition of a goat anti-mouse Tie-2 antibody (R&D Systems, Minneapolis, Minn.; 0.5 μg/mL) and an alkaline phosphate conjugated anti-goat antibody (Sigma, St. Louis, Mo.; diluted 1:6,000) in TPBS+0.1%Top-Block for 1 hour at room temperature. Tie-2 antibody complexes were detected after incubation with p-nitrophenyl phosphate substrate (Sigma). The absorbance of the spectro-photometric reaction was determined with an ELISA reader at 405 nm. Recombinant human extracellular domain of Tie-2 fused to the constant regions of human IgG1 (sTie-2Fc) dissolved in RIPA buffer was used as standard in a concentration range from 0.1 to 300 ng/well
# (§4) Four days after the subcutaneous implantation of the VEGF containing chambers, VEGF induced the formation of a thick layer of neovascularised tissue (called capsule) that grew around the implant. PBS containing chambers induced a much thinner layer of tissue with very few blood vessels around control chamber. Tissue formation can be quantified by measuring the weight and the angiogenic response can be quantified by measuring the Tie-2 levels of the capsule. An ELISA assay can quantitatively measure endothelial cells in tissue extracts to evaluate the vascularization of the tissue. […]
# [2] = tested on: basal induced angiogenesis; assay: In vivo chamber implant angiogenesis assay, base line (no GF stimulation, PBS control chamber); design: species or system FVB mice
# Method: as §1, with “PBS” for “PBS or VEGF (2 μg/mL)”, “at” for “at 12.5, 25 and”, “Basal” for “VEGF induces the growth of vascularized”, “tissue formed” for “tissue”, “chamber was carefully removed and” for “chamber. The angiogenic response can be quantified by measuring”, “were quantified.” for “of the tissue.”
# as §2, §3
# Tie-2 is a receptor tyrosine kinase which is specifically expressed on endothelial cells. For Tie-2 level determination, Nunc (Naperville, Ill.) Maxisorp 96-well plates were coated over night at 4° C. with the capture antibody, anti-Tie-2 AB33 (UBI, Hauppauge, N.Y.), with a concentration of 2 μg/mL (100 μL/well). Wells were washed in TPBS (Tween 80 PBS) and blocked by incubating with 3% Top-Block (Juro, Lucerne, Switzerland) for 2 hours at room temperature. […] Tie-2 antibody complexes were detected after incubation with p-nitrophenyl phosphate substrate (Sigma). The absorbance of the spectro-photometric reaction was determined with an ELISA reader at 405 nm. […]
# as §4, with “PBS containing chambers induced a much thinner layer of tissue with very few blood vessels around control chamber.” left out
# [3] = tested on: VEGF-induced vessel leakage; assay: In vivo VEGF induced permeability assay (Miles assay); design: species or system FVB mice; conditions: 3, 6.25, 12.5 and 25 mg/kg p.o., 5 hours before VEGF injection in the ear
# Method: FIG. 3: Effects of Compound A on VEGF induced permeability in vivo. FVB mice pre-treated with Compound A (3, 6.25, 12.5 and 25 mg/kg, p.o., for 5 h) were injected i.v. with Evans blue and challenged 30 minutes later with VEGF injection in the ear. Mice were then sacrificed and VEGF-mediated vessel leakage is quantified by measurement of the area (mm^2) of dye that extravasated at the site of VEGF injection using pixel-based threshold in computer-assisted image analysis software. Values are mean±SEM. *p<0.05, statistical significance of inhibition. The total number of animals per group is given in brackets.
# 200 μl of Evans blue (0.5%) was injected into the tail vein of female FVB mice. Thirty minutes following administration of the dye, the mice were anaesthesized (3% Isoflurane in O2, Forene®, Abbott AG, Cham, Switzerland) and then placed on an operating field maintained at a temperature of 39° C. Their ears were extended over a steel cone fitted with a double-sided sticker to expose the dorsal surface. […] VEGF-mediated vessel leakage is quantified by measurement of the area (mm^2) of dye that extravasated at the site of VEGF injection using pixel-based threshold in a computer-assisted image analysis software (KS-400 3.0 imaging system, Zeiss, Germany). […]
# [4] = tested on: BN472 tumors; assay: Tumor interstitial fluid pressure (IFP) by radio-telemetry; assay type: in vivo, Brown-Norway (BN) rats
# Method: FIG. 4: Effects of Compound A on tumor interstitial fluid pressure. (A) Orthotopic BN472 tumor bearing rats containing a pressure sensing catheter inserted in the tumor were treated with Compound A at 25 mg/kg (n=6; initial IFP: 25.4 mmHg±2.8), or with the vehicle control (n=9; 18.2 mmHg±1.5) for 3 consecutive days. The IFP was recorded for 72 h and variations (delta towards initial values) plotted (gray lines: untreated animals; dark line: applied treatment as indicated in the graph). Data presented are means±SEM. (B) Same as in A except that additional animals were treated orally with a lower dose of 12.5 mg/kg Compound A (n=3; initial IFP: 18.8 mmHg±2.3; gray line). Recording was extended for 3 additional days post last treatment to assess recovery patterns. The arrows represent the administration schedule. Gray bars represent night time.
# The IFP of BN472 tumors was measured in conscious, freely moving rats maintained in their home cage using an adapted fully implantable miniaturized radio-telemetry system (Data Sciences Int., St. Paul, Minn.) composed of 4 basic components: an implantable transmitter (AM unit, model TLM-PAC10, volume: 1.1 cc, weight: 1.4 g) which continuously senses and transmits information from within the animal, one receiver located under the home cage, a matrix interface for coordination of signals and a computer-based data acquisition system for collection, analysis and storage of data. The body of the transmitter was implanted s.c. under aseptic conditions into the flank of the animal under isofluorane anaesthesia (3% Isoflurane in O2). Briefly, once animals are fully unconscious, they are placed on a heated blanket and the abdominal area is shaved. The ventral surface of the abdomen is then prepared by swabbing the skin with povidone iodine surgical scrub. With the animal supine, a skin incision of approximately 30 mm is made along the midline of the abdomen and the skin separated from the muscle wall building an air pocket. The sterile transmitter is then positioned in this pocket and the sensing catheter tunneled subcutaneously towards the tumor site (lowest mammary fat pad). The sensing pressure catheter was inserted into the body of the tumor (4-5 mm depth) and secured at the site of entry with tissue adhesive (Vetbond; 3M Company). Fluid communication between the tip of the pressure catheter and the tumor was tested by gentle compressing and decompressing the tubing connected to the telemetry transducer using a clamp. […] However, in most of the implanted tumors, intra-tumoral IFP pulse pressure waveform curves could be recorded unstintingly with high resolution confirming even more strongly the adequate sensing catheter placement. The total operation time for the implantation of the telemetry transmitter was about 20 min. Postoperative analgesia was provided using Buprenorphin (Temgesic®, Reckitt and Colman) injection of 0.05 mg/kg s.c. twice, immediately after surgery and 8-12 h later. Following surgery, the unconscious animal is placed on soft material in a clean cage with water ad libitum. An external heat lamp is used to maintain body temperature. The animals were allowed a period of 2 days to recover from surgery before starting acquisition of any physiological data. IFP was recorded continuously in all animals over 24 hours up to 5 days, and analyzed in 1-min cyclic runs for 10 sec, with a 500-Hz sampling rate. Values presented are means over 15 min periods.
# [5] = tested on: BN472 tumors; assay: Efficacy experiment with orthotopic BN472 rat mammary carcinoma model; conditions: qd, p.o.; for T/C (%): 0.5% Methylcellulose suspension
# Excerpt: BN472 tumors were established by orthotopic implantation of tumor fragments into the mammary fat pad of BN rats. Female Brown-Norway (BN) rats (obtained from Charles River (France)) weighing 160-180 g (6-7 weeks of age) were used for all experiments. They were identified by tail markings and kept in groups of 3-5 animals under normal conditions with access to food and water ad libitum. Tumor fragments of 25 mm^3 were taken from the cortex region and were transplanted orthotopically under the fat pad of the fourth left mammary gland of the recipients. For efficacy experiments, treatments were always initiated when the mean tumor volume in each group reached 400-500 mm^3.
# [6] = 12.5 mg/kg p.o. once a day, exp. 2, mean ± SEM
# [7] = 25 mg/kg p.o. once a day, exp. 2, mean ± SEM
# [8] = 50 mg/kg p.o. once a day, exp. 1, mean ± SEM
# [9] = 50 mg/kg p.o. once a day, exp. 2, mean ± SEM
# [10] = 50 mg/kg, chamber without growth factor
compound,measurement,setting,value
"Cc1nc(NC(=O)N2CCC[C@H]2C(N)=O)sc1-c1ccnc(C(C)(C)C(F)(F)F)c1 [Compound A, (S)-Pyrrolidine-1,2-dicarboxylic acid 2-amide 1-({4-methyl-5-[2-(2,2,2-trifluoro-1,1-dimethyl-ethyl)-pyridin-4-yl]-thiazol-2-yl}-amide)]","% inhibition VEGF-stimulated, Capsule weight","[1]; 12.5 mg/kg p.o. once a day, exp. 1, mean ± SEM",64 ± 33 (3) %
same,"% inhibition VEGF-stimulated, Capsule weight",[1]; [6],74 ± 24 (4) %
same,"% inhibition VEGF-stimulated, Total Tie-2",[1]; [6],58 ± 22 (4) %
same,"% inhibition VEGF-stimulated, Capsule weight","[1]; 25 mg/kg p.o. once a day, exp. 1, mean ± SEM",84 ± 5 * (3) %
same,"% inhibition VEGF-stimulated, Capsule weight",[1]; [7],106 ± 28 * (4) %
same,"% inhibition VEGF-stimulated, Total Tie-2",[1]; [7],113 ± 38 * (4) %
same,"Tie-2 levels of the capsule, VEGF chamber",[1]; 50 mg/kg given daily,returned to the baseline or even below
same,"% inhibition VEGF-stimulated, Capsule weight",[1]; [8],88 ± 12 * (4) %
same,"% inhibition VEGF-stimulated, Capsule weight",[1]; [9],121 ± 11 * (6) %
same,"% inhibition VEGF-stimulated, Total Tie-2",[1]; [9],145 ± 9 * (6) %
same,angiogenic response induced by VEGF (weight and Tie-2 level of the capsule),"[1]; once a day at 12.5, 25 and 50 mg/kg in solution",inhibited significantly
same,"% inhibition Base line (no GF stimulation), Capsule weight",[2]; [8],14 ± 11 (2) %
same,"% inhibition Base line (no GF stimulation), Capsule weight",[2]; [9],12 ± 10 (3) %
same,"% inhibition Base line (no GF stimulation), Total Tie-2",[2]; [9],29 ± 9 * (3) %
same,"Tie-2 levels, basal induced angiogenesis",[2]; [10],significantly reduced
same,"tissue weight, basal induced angiogenesis",[2]; [10],did not affect tissue weight
same,abrogation of VEGF-induced Evans blue dye extravasation,[3],up to 90%
same,IFP pattern over three days of treatment compared with 25 mg/kg,[4]; 12.5 mg/kg,very similar pattern
same,time post last treatment at which IFP returned to initial values,[4]; 12.5 mg/kg,≤ 60 h
same,time post last treatment without normalization of IFP diminution,[4]; 25 mg/kg,> 72 h
same,reduction in IFP,"[4]; 25 mg/kg, 4 hours post treatment",clear and significant reduction
same,IFP change at max after first treatment,"[4]; 25 mg/kg, 22 hours post dosage",−25%
same,IFP inhibition after second treatment,"[4]; 25 mg/kg, second treatment at time point 24 hours",−36%
same,IFP inhibition after third treatment,"[4]; 25 mg/kg, third treatment, sustained for 48 hours",−43%
same,% change of body weight corrected,[5]; 20 mg/kg,1.2 ± 0.5%
same,Mean fold change in tumor growth,[5]; 20 mg/kg,4.6 ± 0.8
same,Survival (Survivors/total),[5]; 20 mg/kg,5/5
same,Δ Body weight (mean g ± SEM),[5]; 20 mg/kg,4.0 ± 1.1 g
same,Δ tumor volume (mean mm^3 ± SEM),[5]; 20 mg/kg,1725 ± 283 * mm^3
same,T/C (%),[5]; 20 mg/kg,36% and 36 * %
same,% change of body weight corrected,[5]; 40 mg/kg,−1.8 ± 0.5%
same,Mean fold change in tumor growth,[5]; 40 mg/kg,3.3 ± 0.2
same,Survival (Survivors/total),[5]; 40 mg/kg,5/5
same,Δ Body weight (mean g ± SEM),[5]; 40 mg/kg,-2.5 ± 0.9 g
same,Δ tumor volume (mean mm^3 ± SEM),[5]; 40 mg/kg,1108 ± 198 * mm^3
same,T/C (%),[5]; 40 mg/kg,23% and 23 * %
